Results taken from the PolyMetriX glass transition set.
± gives the standard deviation of the reports.

Row | Compound | glass transition temperature [°C]
1 | *c1ccc([Si](C)(C)[Si](*)(C)C)s1 (repeat unit) | 15.00
2 | *CCCCCCc1nc2cc(NC(=O)CCCCCCCCC(=O)Nc3ccc4oc(*)nc4c3)ccc2o1 (repeat unit) | 86.00
3 | *O[Si](*)(CC)CC (repeat unit) | -139.00
4 | *Nc1ccc(*)cc1OC (repeat unit) | 90.00
5 | *CC1CC(*)OCO1 (repeat unit) [Poly(vinyl formal) ] | 104 ± 21
6 | *C(C)C(*)C(=O)OC(C)C (repeat unit) | 149.00
7 | *CC(*)c1ccc(COCCO)cc1 (repeat unit) | 46.00
8 | *Nc1ccc(NC(=O)c2ccc(C(*)=O)cc2)cc1 (repeat unit) | 295.00
9 | *CC1CCCC(CN2C(=O)c3ccc(C(=O)c4ccc5c(c4)C(=O)N(*)C5=O)cc3C2=O)C1 (repeat unit) | 213.00
10 | */C=C/C1CC(*)C2C(=O)N(c3cccc(C)c3)C(=O)C12 (repeat unit) | 206.00
11 | *Oc1ccc(*)cc1 (repeat unit) | 85.00
12 | *NC(CCC(=O)OCc1ccc([N+](=O)[O-])cc1)C(*)=O (repeat unit) | 53.2
13 | *c1ccc(C(F)(F)C(*)(F)F)cc1 (repeat unit) | 77.0
14 | *CC(*)c1ccc(I)cc1 (repeat unit) | 158.00
15 | *N=P(N=P(N=S(*)(=O)NCC)(NCC)NCC)(NCC)NCC (repeat unit) | 4.00
16 | *Nc1ccc(NC(=O)Cc2cc(C)c(CC(*)=O)cc2C)cc1 (repeat unit) | 175.00

Row | Compound | glass transition temperature [°C]
17 | *Oc1ccc(S(=O)(=O)c2ccc(Oc3ccc(P(C)(=O)c4ccc(*)cc4)cc3)cc2)cc1 (repeat unit) | 233.00
18 | *CCOC(=O)c1ccccc1C(=O)O* (repeat unit) [Poly(ethylene phthalate)] | 60.17 ± 51
19 | *CC(*)(C)C(=O)OC1CCCC(C)C1 (repeat unit) | 89.00
20 | *C(=O)OCCN(CCOC(=O)c1ccc2c(c1)C(=O)N(c1c(C)cc(Cc3cc(C)c(N4C(=O)c5ccc(*)cc5C4=O)c(C)c3)cc1C)C2=O)c1ccc(/N=N/c2ccc([N+](=O)[O-])cc2C#N)cc1 (repeat unit) | 216.00
21 | *CC1CC(CNC(=O)c2cccc(C(=O)N*)c2)CC(C(C)(C)C)C1 (repeat unit) | 209.00
22 | *CC(*)(C)C(=O)OC(C)(C)C (repeat unit) [Poly(t-butyl methacrylate) ] | 107 ± 0.6
23 | *OP(=O)(Oc1ccc([N+](=O)[O-])cc1)Oc1c(Br)cc(C(c2cc(Br)c(*)c(Br)c2)(C(F)(F)F)C(F)(F)F)cc1Br (repeat unit) | 154.00
24 | *CC(*)(C)C(=O)OCCCl (repeat unit) [Poly(2-chloroethyl methacrylate) ] | 90 ± 16
25 | *CCCCCCN1C(=O)C(=O)N(*)C1=O (repeat unit) | 55.00
26 | *Nc1ccc(CC(C)(C)NC(=O)CCC(*)=O)cc1 (repeat unit) | 158.00
27 | *CC(CO*)(CSC(C)C)CSC(C)C (repeat unit) | -9.00
28 | *CC#CC#CCOc1cccc(C(=O)OCCN(CCOC(=O)c2cccc(O*)c2)c2ccc(/N=N/c3ccc(C#N)cc3)cc2)c1 (repeat unit) | 50.00
29 | *CC(*)(CF)C(=O)OCC (repeat unit) | 43.00
30 | *CCCCCCCCCCCCCCCCCCCCC(*)COCCOCCOCCOCCOCc1ccc2ccc3cccc4ccc1c2c34 (repeat unit) | -21.00
31 | *CC(=O)NCCCCCCNC(=O)CS* (repeat unit) | -7.00
32 | *CCCCSSCCCCOCO* (repeat unit) | -76.00

Further lines, results first:

Row | glass transition temperature [°C] | Compound
33 | 253.00 | *c1cccc(C(=O)Nc2ccc(Oc3cccc(Oc4ccc(NC(=O)c5cccc(N6C(=O)c7ccc(-c8ccc9c(c8)C(=O)N(*)C9=O)cc7C6=O)c5)cc4)c3)cc2)c1 (repeat unit)
34 | 175.00 | *Oc1c([2H])c([2H])c(S(=O)(=O)c2c([2H])c([2H])c(Oc3c([2H])c([2H])c(C(c4c([2H])c([2H])c(*)c([2H])c4[2H])(C([2H])([2H])[2H])C([2H])([2H])[2H])c([2H])c3[2H])c([2H])c2[2H])c([2H])c1[2H] (repeat unit)
35 | 238.00 | *c1cccc(Cc2cccc(N3C(=O)c4ccc([Si](C)(C)c5ccc6c(c5)C(=O)N(*)C6=O)cc4C3=O)c2)c1 (repeat unit)
36 | 204.00 | *Cc1ccc(CNC(=O)c2cc(C(=O)N*)cc(C(C)(C)C)c2)cc1 (repeat unit)
37 | 127.00 | *CCOC(=O)Nc1ccc(Cc2ccc(NC(=O)OCCOc3ccc(C(C)(C)c4ccc(O*)cc4)cc3)cc2)cc1 (repeat unit)
38 | 311.00 | *C(=O)c1ccc2c(c1)C(=O)N(c1ccc(C(c3ccccc3)(c3ccc(N4C(=O)c5ccc(*)cc5C4=O)cc3)C(F)(F)F)cc1)C2=O (repeat unit)
39 | 311.00 | *c1cccc(N2C(=O)c3cccc(Oc4c(C)cc(-c5cc(C)c(Oc6cccc7c6C(=O)N(*)C7=O)c(C)c5)cc4C)c3C2=O)c1 (repeat unit)
40 | 113.2 ± 1.8 | *c1ccc2c(c1)C(CCCCCCCC)(CCCCCCCC)c1cc(-c3ccc(*)c4nsnc34)ccc1-2 (repeat unit)
41 | 42.00 | *Oc1ccc(CC(NC(=O)CCc2ccc(OC(=O)CCCCCCCCC(*)=O)cc2)C(=O)OCc2ccccc2)cc1 (repeat unit)
42 | 225.00 | *Oc1ccc(-c2ccc(Oc3ccc(C(=O)c4ccc(*)c(S(=O)(=O)O)c4)cc3S(=O)(=O)O)cc2)cc1 (repeat unit)
43 | 263.00 | *c1cccc(C(=O)Nc2ccc(Oc3ccc(S(=O)(=O)c4ccc(Oc5ccc(NC(=O)c6cccc(N7C(=O)c8ccc(-c9cccc%10c9C(=O)N(*)C%10=O)cc8C7=O)c6)cc5)cc4)cc3)cc2)c1 (repeat unit)
44 | 300.00 ± 9 | *C(=O)c1ccc2c(c1)C(=O)N(c1cccc(N3C(=O)c4ccc(*)cc4C3=O)c1)C2=O (repeat unit)
45 | 123.00 | *COc1ccc(C(c2ccc(O*)cc2)(C(F)(F)F)C(F)(F)F)cc1 (repeat unit)
46 | 242.00 | *CC(=O)Nc1ccc(Oc2ccc(Oc3ccc(NC(=O)CN4C(=O)c5ccc(C(c6ccc7c(c6)C(=O)N(*)C7=O)(C(F)(F)F)C(F)(F)F)cc5C4=O)cc3)cc2)cc1 (repeat unit)
47 | 225.00 | *c1ccc(Oc2ccc(C(C)(C)c3ccc(Oc4ccc(N5C(=O)C6CCC(C7CCC8C(=O)N(*)C(=O)C8C7)CC6C5=O)cc4)cc3)cc2)cc1 (repeat unit)
48 | 222.00 | *c1ccc2c(c1)C(=O)N(c1ccc(Oc3ccc(C(=O)c4cccc(N5C(=O)c6ccc(C(*)(C(F)(F)F)C(F)(F)F)cc6C5=O)c4)cc3)c(C(F)(F)F)c1)C2=O (repeat unit)
49 | 183.00 | *c1cccc(C(F)(F)C(F)(F)C(F)(F)c2cccc(N3C(=O)c4ccc(Oc5ccc6c(c5)C(=O)N(*)C6=O)cc4C3=O)c2)c1 (repeat unit)

Row | glass transition temperature [°C] | Compound
50 | 220.00 | *Nc1ccc(Cc2ccc(NC(=O)c3cc(NC(=O)CCCN4C(=O)c5ccccc5C4=O)cc(C(*)=O)c3)cc2)cc1 (repeat unit)
51 | 152.00 | *Oc1ccc(CCNC(=O)c2cccc(C(*)=O)c2)cc1 (repeat unit)
52 | 312.90 | *c1c(C)cc(C(c2cccc(C(F)(F)F)c2)c2cc(C)c(N3C(=O)c4ccc(-c5ccc6c(c5)C(=O)N(*)C6=O)cc4C3=O)c(C)c2)cc1C (repeat unit)
53 | 339.00 | *c1ccc2c(c1)C(=O)N(c1ccc(-c3cc(-c4ccc(OCCCC#N)cc4)cc(-c4ccc(N5C(=O)c6ccc(C(*)(C(F)(F)F)C(F)(F)F)cc6C5=O)cc4)n3)cc1)C2=O (repeat unit)
54 | 141.00 | *Oc1ccc(-c2ccc(OC(=O)c3ccc(C(*)=O)cc3Sc3ccc4ccccc4c3)cc2)cc1 (repeat unit)
55 | 287.00 | *c1ccc(C(=O)Nc2ccc(Oc3ccc(S(=O)(=O)c4ccc(Oc5ccc(NC(=O)c6ccc(N7C(=O)c8ccc(-c9cccc%10c9C(=O)N(*)C%10=O)cc8C7=O)cc6)cc5)cc4)cc3)cc2)cc1 (repeat unit)
56 | 164.50 | *Oc1ccc(Oc2ccc(OC(=O)c3cccc(C(*)=O)c3)cc2)cc1 (repeat unit)
57 | -35.00 | *O[Si](C)(C)O[Si](C)(C)O[Si](C)(C)O[Si](C)(C)Oc1c(*)c2ccccc2c2ccccc12 (repeat unit)
58 | 134.00 | *c1cccc(OCCCCCCCCCOc2cccc(N3C(=O)c4ccc(-c5cccc6c5C(=O)N(*)C6=O)cc4C3=O)c2)c1 (repeat unit)
59 | 315.00 | *C(=O)Nc1ccc(Oc2cccc(NC(=O)c3ccc4c(c3)C(=O)N(c3ccc(-c5sc(-c6ccc(N7C(=O)c8ccc(*)cc8C7=O)cc6)c(-c6ccccc6)c5-c5ccccc5)cc3)C4=O)c2)cc1 (repeat unit)
60 | 205.00 | *CCCCc1ccc(-c2c(-c3ccccc3)cc(-c3ccc(-c4cc(-c5ccccc5)c(-c5ccc(*)cc5)c(-c5ccccc5)c4-c4ccccc4)cc3)c(-c3ccccc3)c2-c2ccccc2)cc1 (repeat unit)
61 | 294.00 | *Nc1ccc(-c2ccc(NC(=O)c3cccc(C(*)=O)c3)cc2)cc1 (repeat unit)
62 | 92.00 | *Oc1ccc(C(C)(C)c2ccc(OC(*)(Oc3ccccc3)Oc3ccccc3)cc2)cc1 (repeat unit)
63 | 206.00 | *c1ccc(Oc2ccc(Sc3ccc(Oc4ccc(N5C(=O)c6ccc(Oc7ccc(-c8ccc(Oc9ccc%10c(c9)C(=O)N(*)C%10=O)cc8)cc7)cc6C5=O)cc4)cc3)cc2)cc1 (repeat unit)
64 | 367.00 | *C(=O)Nc1ccc(S(=O)(=O)c2ccc(NC(=O)c3ccc4c(c3)C(=O)N(c3cc(-c5nc6ccccc6o5)cc(N5C(=O)c6ccc(*)cc6C5=O)c3)C4=O)cc2)cc1 (repeat unit)
65 | 297.50 | *C(=O)Nc1ccc(NC(=O)c2ccc(N3C(=O)c4ccc(*)cc4C3=O)cc2)cc1 (repeat unit)
